Results from patent US12617870B2, “Methods of reversing ticagrelor activity” (SFJ Pharmaceuticals X, LTD., priority 2018, dated 2026).
Values joined by “and” are separate entries in the source; they are usually repeats but may differ in a detail not shown here. Equal values may be shown once.

How the values were obtained:
[1] = test system: PB2452 binding to biotinylated ticagrelor; experiment: Selectivity: competition binding with PB2452 to biotinylated ticagrelor; set-up: species or system human
Description: The chemical starting point for the development of ticagrelor was adenosine triphosphate (ATP), and ticagrelor retains an adenosine-like core. To confirm the specificity of PB2452 for ticagrelor and ticagrelor active metabolite (TAM), its binding to ATP, ADP, and adenosine was evaluated. […] The selectivity of PB2452 was determined by competition binding with PB2452 to biotinylated ticagrelor.

[2] = PLATO, cited from earlier work; for patients with fatal or life-threatening major bleeding events: patients with ACS, both treatment groups
[3] = test system: platelet aggregation (ticagrelor antiplatelet activity); type: in vivo, human; details: placebo subjects
Description: Platelet function was assessed using light transmission aggregometry (LTA), VerifyNow, and vasodilator stimulated phosphoprotein (VASP) assays before and after 48 hours of ticagrelor administration […] Cohorts 7 to 10 received an 18-gram fixed dose of PB2452 via various infusion regimens or placebo. Infusions of PB2452 in these cohorts were initiated 2 hours after the last ticagrelor pretreatment dose to coincide with the peak concentration of ticagrelor. (Gurbel (2009). Subjects in all cohorts were randomized in a 3:1 ratio to receive PB2452 or placebo. The primary efficacy outcome was the effectiveness of PB2452 in reversing the antiplatelet effect of ticagrelor by analyzing platelet aggregation using light transmission aggregometry at multiple time points before and after PB2452 or placebo administration in ticagrelor pretreated subjects. Secondary efficacy outcomes were the effectiveness of ticagrelor reversal assessed using VerifyNow and the vasodilator stimulated phosphoprotein phosphorylation immunoassay (VASP). The sample size of 64 was based on clinical and practical considerations and not on a formal statistical power calculation. The sample size was considered sufficient to adequately assess the safety, efficacy, and pharmacokinetic profiles of PB2452 and the pharmacokinetic and pharmacodynamic profiles of ticagrelor. Reversal of antiplatelet effect was evaluated by comparing the mean percent of baseline platelet aggregation between PB2452 and placebo using Wilcoxon rank-sum test. Multiplicity was adjusted using the Bonferroni method. Correlations between each pair of the platelet function tests were evaluated using Pearson's correlation and Spearman's rank correlation coefficient. Mean data from subjects receiving placebo were pooled across cohorts for all presentations. Categorical variables are summarized by their frequencies and percentages, and continuous variables are presented with the number of subjects with non-missing data, mean, standard deviation, median, minimum, and maximum. Descriptive statistics are presented for each cohort, and pooled placebo and PB2452 data. For pharmacodynamic data, platelet aggregation results were compared between each cohort and pooled placebo data (cohorts 4 to 6 and cohort 7 to 10 were pooled separately). All analyses were performed with SAS software, version 9.4 (SAS Institute).

[4] = Phase 1 healthy volunteer study: pharmacokinetics of total ticagrelor; type: in vivo, human
Description: Plasma samples for determining total concentration of ticagrelor and its active metabolite, TAM (or ARC-124910XX) will be collected from subjects in Cohorts 4 through 10 before dosing (within 10 minutes prior to the initiation of the study drug infusion [Hour 0], and up to 48 hours following the initiation of study drug infusion. Specific collection times for each cohort are listed in the table below: […]

Nc1ncnc2c1ncn2[C@@H]1O[C@H](COP(=O)(O)OP(=O)(O)O)[C@@H](O)[C@H]1O [ADP, adenosine diphosphate]
inhibition of PB2452 binding to biotinylated ticagrelor [1]: No inhibition

Nc1ncnc2c1ncn2[C@@H]1O[C@H](COP(=O)(O)OP(=O)(O)OP(=O)(O)O)[C@@H](O)[C@H]1O [ATP, adenosine triphosphate]
inhibition of PB2452 binding to biotinylated ticagrelor [1]: No inhibition

Nc1ncnc2c1ncn2[C@@H]1O[C@H](CO)[C@@H](O)[C@H]1O [adenosine]
inhibition of PB2452 binding to biotinylated ticagrelor [1]: No inhibition

CCCC(=O)Nc1ncnc2c1ncn2[C@@H]1O[C@@H]2COP(=O)(O)O[C@H]2[C@H]1OC(=O)CCC [bucladesine]
inhibition of PB2452 binding to biotinylated ticagrelor [1]: No inhibition

CSCCNc1nc(SCCC(F)(F)F)nc2c1ncn2[C@@H]1O[C@H](COP(=O)(O)OP(=O)(O)C(Cl)(Cl)P(=O)(O)O)[C@@H](O)[C@H]1O [cangrelor]
inhibition of PB2452 binding to biotinylated ticagrelor [1]: No inhibition

O=C1CCc2cc(OCCCCc3nnnn3C3CCCCC3)ccc2N1 [cilostazol]
inhibition of PB2452 binding to biotinylated ticagrelor [1]: No inhibition

COC(=O)[C@H](c1ccccc1Cl)N1CCc2sccc2C1 [clopidogrel]
patients with fatal or life-threatening major bleeding events [2]: 5.8%

NS(=O)(=O)c1cc2c(cc1Cl)NC(C1CC3C=CC1C3)NS2(=O)=O (centres unmarked) [cyclothiazide]
inhibition of PB2452 binding to biotinylated ticagrelor [1]: No inhibition

CC1(C)C(C=C(Cl)Cl)C1C(=O)OC(C#N)c1ccc(F)c(Oc2ccccc2)c1 (centres unmarked) [cyfluthrin]
inhibition of PB2452 binding to biotinylated ticagrelor [1]: No inhibition

CC(=O)NC[C@H]1CN(c2ccc(N3CCOCC3)c(F)c2)C(=O)O1 [linezolid]
inhibition of PB2452 binding to biotinylated ticagrelor [1]: No inhibition

CC[C@H](C)C(=O)O[C@H]1C[C@@H](C)C=C2C=C[C@H](C)[C@H](CC[C@@H]3C[C@@H](O)CC(=O)O3)[C@H]21 [lovastatin]
inhibition of PB2452 binding to biotinylated ticagrelor [1]: No inhibition

COC(=O)C1=C(C#N)NC(C)=C(C(=O)OC(C)C)C1c1cccc([N+](=O)[O-])c1 (centres unmarked) [nilvadipine]
inhibition of PB2452 binding to biotinylated ticagrelor [1]: No inhibition

CNC(=O)c1cnn(-c2nc(N)c3ncn([C@@H]4O[C@H](CO)[C@@H](O)[C@H]4O)c3n2)c1 [regadenoson]
inhibition of PB2452 binding to biotinylated ticagrelor [1]: No inhibition

CCCSc1nc(N[C@@H]2C[C@H]2c2ccc(F)c(F)c2)c2nnn([C@@H]3C[C@H](OCCO)[C@@H](O)[C@H]3O)c2n1 [ticagrelor, (1S,2S,3R,5S)-3-[7-{[(1R,2S)-2-(3,4-difluorophenyl)cyclopropyl]amino}-5-(propylthio)-3H-[1,2,3]triazolo[4,5-d]pyrimidin-3-yl]-5-(2-hydroxyethoxy)cyclopentane-1,2-diol]
patients with fatal or life-threatening major bleeding events [2]: 5.8% | patients with fatal or life-threatening bleeding event ([2]; urgent surgery, could not wait three days for ticagrelor to wash out): approximately 50% | patients with major bleeding related to procedures like CABG [2]: approximately 9% | patients with spontaneous major bleeding events not related to any medical procedure [2]: approximately 3% | suppression of platelet aggregation ([3]; after 48 hours of ticagrelor (180 mg loading + 90 mg twice daily)): ~80% and 80-85% | platelet aggregation remained suppressed after ticagrelor was stopped [3]: 24 h | increase of mean ticagrelor concentrations compared with ticagrelor alone ([4]; PB2452 18 gram dose level with 8- to 16-hour infusions): 5.6 fold | increase of mean concentration of circulating ticagrelor ([4]; in the presence of PB2452 (Cohorts 4-6, FIG. 11B)): 2-5.6 fold | time of peak total ticagrelor concentration after an oral dose ([4]; subjects receiving ticagrelor alone): approximately 2 hours | peak total ticagrelor concentration ([4]; subjects receiving ticagrelor alone, oral dose): 900 ng/mL
